Experimental data published in patent US20190167811A1, “LIPID COMPOSITIONS AND THEIR USES FOR INTRATUMORAL POLYNUCLEOTIDE DELIVERY” (ModernaTX, Inc., priority 2016, published 2019).

Assay: Plasma and liver pharmacokinetics of LNP formulated mRNAs
Assay type: in vivo
Experimental: The plasma and liver pharmacokinetics of a lipid formulation (LNP) containing Compound 18 and an mRNA encoding a protein of interest was studied. The concentrations of Compound 18 in plasma after a single IV infusion are shown FIG. 28. The concentration of Compound 18 decreased quickly within about 12 hours.
The concentrations of Compound 18 in liver tissues after weekly dosing were measured at day 1, day 8, and day 15.

## CCCCCCCCCOC(=O)CCCCCCCN(CCO)CCCCCCCC(=O)OC(CCCCCCCC)CCCCCCCC [Compound 18, Heptadecan-9-yl 8-((2-hydroxyethyl)(8-(nonyloxy)-8-oxooctyl)amino) octanoate]
Single IV infusion of LNP containing Compound 18 and mRNA
  time within which the concentration of Compound 18 in plasma decreased quickly: ≤ 12 h
Weekly dosing, measured at day 1, day 8, day 15, at four hours after each weekly dosing
  concentration of Compound 18 in liver tissues: decreased significantly
